Assay results from article PMC4277420, “Assessment of [^125I]WYE-230949 as a Novel Histamine H3 Receptor Radiopharmaceutical” (PLoS ONE, 2014).
Like-named read-outs stand apart in the source and are kept apart here.

Experiments:
[1] = cited from earlier work
[2] = parameters: method as in PMID 16934699, PMID 17998102; conditions: cited from earlier work
[3] = parameters: method as in PMID 16934699; conditions: rats, 5 min post injection; cited from earlier work
[4] = target: T1, rat histamine H3 receptor (Rattus norvegicus, UniProt Q9QYN8); conditions: rat striatum; cited from earlier work
T1 construct: from tissue; host or cells: whole brain of male Sprague-Dawley rats, homogenate pellet

[5] = cited from earlier work; remark: listed apart in the source
[6] = target: T1, rat histamine H3 receptor; assay: In vitro saturation radioligand binding to rat brain homogenates; conditions: whole rat brain homogenates, one-site binding model, n = 8
Description: Animals (male Sprague-Dawley rats; Harlan, UK) were killed by cervical dislocation. Whole brains were immediately excised and placed into ice-cold Tris-HCl buffer (Tris […], pH 7.4; EDTA 5 mM), homogenised and centrifuged at approx 40,000 g for 10 min at 4°C (Beckman J2-21M/E). The pellet was resuspended in 25 ml of buffer and centrifuged as previously, then the final pellet was resuspended in 10 ml of ice cold Tris buffer and stored at −50°C until required. Protein content was analysed using Bio-Rad reagent; absorbance was read on a spectrophotometer at 562 nm. [^125I]WYE230949 binding assays were carried out in a final incubation volume of 500 µl containing Tris-HCl buffer (Tris […], pH 7.4; EDTA 5 mM), brain homogenates (1.47 to 2.27 mg/ml of protein) and [^125I]WYE230949 (0.04–102 nM). Non-specific binding was defined in the presence of 10 µM iodophenpropit. Samples were incubated at 30°C for 30 min, then filtered rapidly through Whatman GF/B filters (pre-treated with 0.3% polyethylenimine; Aldrich, UK) using a Brandel M24R cell harvester and the filters washed with 3×4 ml ice-cold Tris buffer. Radioactivity on the filters was determined by liquid scintillation counting a minimum of 48 h after filtration. All assays were performed in triplicate. Specific binding was determined by subtracting non-specific binding from total binding at each concentration; Kd and Bmax values derived using GraphPad Prism (version 4.03), and expressed as mean ±SEM of the triplicate assays.

[7] = target: human histamine H3 receptors; parameters: method as in earlier work; conditions: human histamine H3 receptor; cited from earlier work
[8] = target: rat histamine H3 receptors; parameters: method as in earlier work; conditions: rat histamine H3 receptor; cited from earlier work
[9] = parameters: method as in PMID 19910432; conditions: porcine brain, 20 min post injection; cited from earlier work
[10] = cited from earlier work; remark: listed apart in the source

T1 sequence (Q9QYN8 whole entry): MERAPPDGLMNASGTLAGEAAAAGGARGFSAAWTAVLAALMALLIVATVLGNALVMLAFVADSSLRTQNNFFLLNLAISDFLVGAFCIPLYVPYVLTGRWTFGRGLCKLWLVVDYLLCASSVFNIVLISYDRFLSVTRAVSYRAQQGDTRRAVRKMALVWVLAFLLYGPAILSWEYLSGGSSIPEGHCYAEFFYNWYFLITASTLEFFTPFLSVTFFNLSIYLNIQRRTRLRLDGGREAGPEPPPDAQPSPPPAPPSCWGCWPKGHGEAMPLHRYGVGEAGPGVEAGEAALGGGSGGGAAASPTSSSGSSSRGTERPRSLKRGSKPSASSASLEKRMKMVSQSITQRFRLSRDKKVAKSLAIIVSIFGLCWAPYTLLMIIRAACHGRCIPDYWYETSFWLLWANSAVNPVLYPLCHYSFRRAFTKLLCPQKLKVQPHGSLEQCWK

## [18F]c1ccc(COCCCc2cnc[nH]2)cc1 [[^18F]fluoroproxyfan]
[1]; 30 minutes post injection
  parent remaining in plasma: 43%
[2]; 30 min post injection
  parent remaining in the brain: 94%
[2]; 120 min post injection
  parent remaining in the brain: 68%

## C(#Cc1cccc([11CH2]N2CCOCC2)c1)CCN1CCCCC1 [[^11C]JNJ-10181457, 4-[3-(4-piperidin-1-yl-but-1-ynyl)-[^11C]benzyl]-morpholine]
[3]
  brain uptake: 1.38 %ID/g
[2]; 30 min post injection
  parent remaining in the brain: greater than 80%

## [123I]c1ccc(COCCCc2cnc[nH]2)cc1 [[^123I]iodoproxyfan]
[4]
  Bmax: 78 fmol/mg of protein
[5]
  peak brain uptake: ~1.5 %ID/g

## O=C(c1ccc(Cn2cnc3cccc(I)c32)cc1)N1CC[C@H](N2CCCC2)C1 [[^125I]WYE-230949]
[6]
  Kd: 6.9 nM

## O=C(c1ccc(Cn2cnc3cccc(I)c32)cc1)N1CC[C@H](N2CCCC2)C1 [WYE-230949]
[7]
  Ki: 0.3 nM
[8]
  Ki: 5.7 nM

## [11CH3]NC(=O)c1ccc(Oc2ccc3c(c2)CCN(C2CCC2)CC3)nc1 [[^11C]GSK189254]
[9]
  brain uptake: 9.0 %ID/L
[1]; 30 minutes post injection
  parent remaining in plasma: 58%
[1]; after 90 min
  parent remaining in plasma: 55%
[10]
  LogD: 1.7
